Assay results taken from US20230124720A1, “APPLICATION OF ACRIDINEDIONE COMPOUND IN PREPARATION OF ANTI-DIABETIC DRUGS” (THE FOURTH MILITARY MEDICAL UNIVERSITY, priority 2020, published 2023).

Columns and labels:
STZ-induced T2DM rats [1] = test: Insulin tolerance test (ITT) in T2DM rats; assay type: in vivo, rat
Protocol: 150 male SD rats, housed in cages in a clean constant temperature (23±2° C.) and humidity (55±10%) animal house, were manually adjusted on a daily 12 h/12 h diurnal light cycle with free access to water. After 3 days of adaptive feeding, 150 rats were randomly divided into normal and model groups. The normal (Con, n=15) group of rats remained on raw chow and the model group (n=135) of rats were given high fat high sugar chow. All rats were fed twice daily and the amount of feed was adjusted as needed to ensure adequate feed. After 8 weeks of group feeding, the model group rats were given an intraperitoneal injection of 25 mg/kg STZ solution with a 12 h fast prior to injection. After injection, feeding was continued as in the original method, blood was taken from the tail vein at 72 h for blood glucose measurement, and rats with fasting blood glucose levels ≥11.1 mmol/L on different days were screened for successful artificial induction of T2DM and administered in groups for the next experiment. 135 rats with successful modeling were randomly divided into 9 groups: […] (2) 0.01 mg/kg ADD-16 administration group (ADD I, n=15): daily administration of 0.01 mg/kg ADD-16 solution by gavage; (3) 0.1 mg/kg ADD-16 administration group (ADD II, n=15): daily administration of a 0.1 mg/kg ADD-16 solution by gavage; (4) 1 mg/kg ADD-16 administration group (ADD III, n=15): daily administration of a 1 mg/kg ADD-16 solution by gavage; (5) 3 mg/kg ADD-16 administration group (ADD IV, n=15): daily administration of a 3 mg/kg ADD-16 solution by gavage; (6) 10 mg/kg ADD-16 administration group (ADD V, n=15): daily administration of a 10 mg/kg ADD-16 solution by gavage; (7) 50 mg/kg ADD-16 administration group (ADD VI, n=15): daily administration of a 50 mg/kg ADD-16 solution by gavage; […] (9) Sitagliptin control group (ST, n=15): daily administration of a 6 mg/kg sitagliptin solution by gavage. […] Relevant indicators of lipid metabolism were measured after the end of the study. […] After the 120 min blood glucose value determination was completed, the diet was resumed. In the test, the condition of the rats was observed, and when abnormalities occurred, the experiment was stopped in time and a glucose solution was given by gavage to prevent death due to hypoglycemia.

STZ-induced T2DM rats [2] = test: Serum insulin and HOMA-IR in T2DM rats; assay type: in vivo, rat
Protocol: 150 male SD rats, housed in cages in a clean constant temperature (23±2° C.) and humidity (55±10%) animal house, were manually adjusted on a daily 12 h/12 h diurnal light cycle with free access to water. After 3 days of adaptive feeding, 150 rats were randomly divided into normal and model groups. The normal (Con, n=15) group of rats remained on raw chow and the model group (n=135) of rats were given high fat high sugar chow. All rats were fed twice daily and the amount of feed was adjusted as needed to ensure adequate feed. After 8 weeks of group feeding, the model group rats were given an intraperitoneal injection of 25 mg/kg STZ solution with a 12 h fast prior to injection. […] At the same time, the Con group was daily administrated with a 0.5% CMC-Na solution by gavage, the body weight and postprandial blood sugar (PBG) of each group of rats were monitored weekly. Relevant indicators of lipid metabolism were measured after the end of the study.
In T2DM rat serum insulin assay, fasting serum insulin levels in rats were measured by a commercial insulin ELISA kit. The extent of body insulin resistance was assessed using the Insulin Resistance Index, which was calculated using the Homeostasis model assessment (HOMA-IR) according to literature reports, i.e., HOMA-IR=(fasting glucose×fasting insulin)/22.5.

GPR40 = test: Insulin secretion in MIN6 cells with GPR40 inhibitor GW1100; assay type: cell-based, mouse; conditions: 10 μmol/L GW1100 + 10 μmol/L ADD-16, 24 h
Protocol: MIN6 cells were seeded in 24-well plates and cultured as described in step 2.1 to a cell confluency of more than 80% and administrated in the following groups, with 12 replicates per group: (1) normal control group (Con): cultured with blank 1640 medium; (2) GW9508 group: 1 μmol/L GW9508 intervention for 24 h; (3) GW1100 group: 10 μmol/L GW1100 intervention for 24 h; (4) ADD-16 group (ADD): 10 μmol/L ADD-16 intervention for 24 h; (5) GW1100+GW9508 group: 10 μmol/L GW1100+1 μmol/L GW9508 intervention for 24 h; (6) GW1100+ADD-16 group: 10 μmol/L GW1100+10 μmol/LADD-16 intervention for 24 h. After the group administration, the medium was aspirated and washed 2 times with a KRB buffer without sugar, followed by the addition of the KRB buffer without sugar. After incubation at 37° C. for 30 min, the buffer was aspirated and each group was divided into two, i.e., 6 replicates for each group, and KRB buffers containing 2.8 mmol/L and 16.7 mmol/L glucose was added respectively. After incubation at 37° C. for 1 h, all the medium in the wells was aspirated and centrifuged at 2000 rmp/min for 20 min, and the supernatant was collected and stored at −20° C. The insulin content was measured for each group.

CC1(C)CC(=O)C2=C(C1)NC1=C(C(=O)CC(C)(C)C1)C2c1ccc(OCc2ccc(C(=O)O)cc2)c(Br)c1 [ADD-16]
decrease of ITT AUC compared to the TD group (STZ-induced T2DM rats [1]; ADD IV group, 3 mg/kg daily by gavage): 46.5% | decrease of ITT AUC compared to the TD group (STZ-induced T2DM rats [1]; ADD V group, 10 mg/kg daily by gavage): 43.7% | decrease of ITT AUC compared to the TD group (STZ-induced T2DM rats [1]; ADD VI group, 50 mg/kg daily by gavage): 45.2% | HOMA-IR (in words) (STZ-induced T2DM rats [2]): significantly reduced HOMA-IR values | serum insulin level (in words) (STZ-induced T2DM rats [2]; fasting serum): reduce compensatorily elevated insulin levels | insulin secretion in GW1100-treated MIN6 cells (in words) (GPR40): increase insulin secretion in MIN6 cells treated with the GPR40 inhibitor GW1100
